Here are results for 20 compounds from US20250361241A1, “HPK1 INHIBITOR AND MEDICAL USE THEREOF” (Betta Pharmaceuticals Co., Ltd., priority 2022, published 2025).

For one assay, the target named is HPK1 (Homo sapiens (Human), UniProt Q92918). Description: HPK1 enzyme activity detection (1 mM ATP system), ADP-Glo with MBP substrate, Pharmacological Experiment 2. The assay is classed as biochemical. An outline of the steps: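 Compound in DMSO preincubated with HPK1 for 15 min at 25 °C, then reaction started with ATP (1 mM system) and MBP substrate for 60 min at 25 °C. ADP formed quantified by ADP-Glo luminescence; IC50 derived from percentage inhibition.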
(In ADP-Glo the light output rises with the ADP produced.)

The target of a further assay is GLK (Homo sapiens (Human), UniProt Q8IVH8). The experiment in a line: GLK kinase assay (1 mM ATP system), ADP-Glo. The assay is classed as biochemical. How it is done: Solution […] The test compound was serially diluted using DMSO to 200 times the detection concentration. […] Centrifuge at 1000×g for 30 seconds and incubate at 25° C. for 15 minutes. • (5) Add ATP and substrate: Add 2 μL of 2×ATP-MBP solution to the 384-well plate and centrifuge at 1000×g for 30 seconds. Seal the plate with a sealing film and incubate at 25° C. for 60 minutes. • (6) Add ADP-Glo reagent: Add 4 μL ADP-Glo reagent (Promega, V9103) to the 384-well plate, centrifuge at 1000×g for 30 seconds, and incubate at 25° C. for 60 minutes. • (7) Detection of luminescent signal: Add 8 μL of luminescent detection reagent (Promega, V9103) to a 384-well plate, centrifuge at 1000×g for 30 seconds, and incubate at 25° C. for 60 minutes. The chemiluminescent signal was read using a BMG microplate reader. • (8) Calculation of percentage inhibition rate: […] See Table 2 for the GLK kinase IC50 data of the example compounds on […].

In assay [1] the test system is human peripheral blood mononuclear cells. Description: Detection of IFN-γ secretion in human peripheral blood mononuclear cells (anti-CD3/CD28 beads, ELISA). The note with it: for Maximum induction factor: IFN-γ secretion, human PBMC; for EC3x: concentration for IFN-γ secretion of human PBMC to reach 3 times the baseline, 3 days. The assay is classed as cell-based. How it is done: Pharmacological Experiment 4: Detection of IFN-γ Secretion in Human Peripheral Blood Monocytes
• (1) Take human peripheral blood mononuclear cells frozen in liquid nitrogen, thaw in a 37° C. water bath, add 5 mL of preheated RPMI-1640 complete medium (containing 10% fetal bovine serum and penicillin/streptomycin), centrifuge at 500 g for 10 minutes, and discard the supernatant; • (2) Resuspend the cells in RPMI-1640 complete medium, adjust the density to 5×10^6 cells/mL, inoculate in a low-adhesion 6-well plate (Corning, 3471), and culture at 37° C. for 2 days; • (3) Collect cultured human peripheral blood mononuclear cells, centrifuge at 500 g for 10 min, and discard the supernatant; • (4) Resuspend the cells in RPMI-1640 complete medium, adjust the density to 1×10^6 cells/mL, and inoculate them in a round-bottom 96-well plate (Jet Biofil, TCP-002-096), with 100 μL per well; • (5) Add 50 μL of the test compound to each well and incubate at 37° C. for 30 min; • (6) Take human anti-CD3/CD28 magnetic beads (Miltenyi, 130-091-441), wash once with RPMI-1640 complete medium, and adjust the density to 0.5×106 beads/mL for later use; • (7) After the compound incubation, 50 μL of anti-human CD3/CD28 magnetic beads were added to each well and cultured at 37° C. for 3 days, • (8) The cell culture supernatant was obtained and the IFN-γ secretion was detected using the Human IFN-gamma DuoSet ELISA kit (R&D, DY285B-05); • (9) The log value of concentration was used as the X-axis and the IFN-γ secretion amount was used as the Y-axis. The “log (agonist) vs. response−variable slope” equation of the analysis software GraphPad Prism 7 was used to fit the dose-effect curve, thereby obtaining the EC3x value and the maximum induction factor of the compound for the secretion of IFN-γ from human peripheral blood mononuclear cells to reach 3 times the baseline.
For orientation: ELISA stands for enzyme-linked immunosorbent assay.

“And” between values parts separate entries of the source, which are not always exact repeats. Identical values can stand only once.

Sequence of GLK (Q8IVH8 whole entry, species assumed): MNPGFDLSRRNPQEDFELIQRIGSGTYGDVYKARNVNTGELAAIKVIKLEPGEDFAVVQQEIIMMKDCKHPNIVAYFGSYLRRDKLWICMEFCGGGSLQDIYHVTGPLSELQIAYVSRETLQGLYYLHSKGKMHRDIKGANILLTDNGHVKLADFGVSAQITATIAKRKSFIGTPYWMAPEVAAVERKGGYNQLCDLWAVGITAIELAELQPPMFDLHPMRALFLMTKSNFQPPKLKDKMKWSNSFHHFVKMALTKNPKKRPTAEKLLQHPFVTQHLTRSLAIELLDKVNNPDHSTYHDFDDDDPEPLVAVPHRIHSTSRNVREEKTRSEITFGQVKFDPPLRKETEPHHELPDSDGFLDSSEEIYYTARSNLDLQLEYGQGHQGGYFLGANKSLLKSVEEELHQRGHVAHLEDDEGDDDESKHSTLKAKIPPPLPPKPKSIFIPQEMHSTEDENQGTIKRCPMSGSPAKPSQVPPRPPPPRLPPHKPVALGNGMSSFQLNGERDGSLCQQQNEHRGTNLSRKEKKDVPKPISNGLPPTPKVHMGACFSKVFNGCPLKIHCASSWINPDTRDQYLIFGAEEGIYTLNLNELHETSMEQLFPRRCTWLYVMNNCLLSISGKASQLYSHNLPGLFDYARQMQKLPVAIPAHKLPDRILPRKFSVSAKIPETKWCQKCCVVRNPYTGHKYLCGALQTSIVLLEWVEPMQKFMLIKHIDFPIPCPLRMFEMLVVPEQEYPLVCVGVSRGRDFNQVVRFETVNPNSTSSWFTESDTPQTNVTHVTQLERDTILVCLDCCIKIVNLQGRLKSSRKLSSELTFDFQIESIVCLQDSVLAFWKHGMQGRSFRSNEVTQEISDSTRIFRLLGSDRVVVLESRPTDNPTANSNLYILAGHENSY
Sequence of HPK1 (Q92918 whole entry, species assumed): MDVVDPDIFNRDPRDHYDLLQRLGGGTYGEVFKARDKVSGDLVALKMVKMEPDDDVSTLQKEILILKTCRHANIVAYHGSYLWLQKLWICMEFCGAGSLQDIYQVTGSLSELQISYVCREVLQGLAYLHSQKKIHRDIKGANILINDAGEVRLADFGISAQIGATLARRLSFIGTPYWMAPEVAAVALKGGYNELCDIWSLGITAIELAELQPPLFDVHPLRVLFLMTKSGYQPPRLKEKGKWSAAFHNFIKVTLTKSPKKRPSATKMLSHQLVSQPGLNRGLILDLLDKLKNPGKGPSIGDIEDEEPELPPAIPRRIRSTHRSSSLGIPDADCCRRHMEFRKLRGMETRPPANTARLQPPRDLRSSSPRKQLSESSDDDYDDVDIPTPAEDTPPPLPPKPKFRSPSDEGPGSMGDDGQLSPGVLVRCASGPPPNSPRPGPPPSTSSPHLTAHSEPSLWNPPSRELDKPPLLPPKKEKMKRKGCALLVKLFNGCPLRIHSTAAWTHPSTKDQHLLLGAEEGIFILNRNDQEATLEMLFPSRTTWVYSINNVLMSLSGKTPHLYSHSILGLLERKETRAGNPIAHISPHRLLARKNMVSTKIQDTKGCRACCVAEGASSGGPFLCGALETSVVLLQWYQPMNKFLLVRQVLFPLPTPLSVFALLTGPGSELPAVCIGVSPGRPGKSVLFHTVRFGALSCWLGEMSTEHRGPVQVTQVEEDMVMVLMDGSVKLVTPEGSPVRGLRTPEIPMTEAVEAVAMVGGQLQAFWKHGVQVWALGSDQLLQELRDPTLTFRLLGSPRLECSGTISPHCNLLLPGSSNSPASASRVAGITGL

As usually defined, the IC50 is the concentration needed to halve the response being measured. Read a low IC50 as greater potency in that assay. As for “4-(7-FLUOROIMIDAZO[1,2-A]PYRIDIN-3-YL)-7-((2,3,5,6,7′,8′-HEXAHYDRO-6′H-SPIRO[PYRAN-4,5′-[1,7]NAPHTHYRIDINE]-2′-YL)AMINO)ISOINDOL-1-ONE [Compound 87]”, the IC50 on HPK1 came to 5.12 nM; on GLK it was 724 nM. The Maximum induction factor in assay [1] worked out at 11.2. Moreover, the “EC3x” value in assay [1] turned out to be 193 nM.

In the case of “4-(7-FLUOROIMIDAZO[1,2-A]PYRIDIN-3-YL)-7-((7′-METHYL-2,3,5,6,7′,8′-HEXAHYDRO-6′-SPIRO[PYRAN-4,5′-[1,7]NAPHTHYRIDINE]-2′-YL)AMINO)ISOINDOL-1-ONE [Compound 50]”, half-maximal inhibition against HPK1 (IC50) was put at 3.39 nM. For the same compound, on GLK, the IC50 is 1230 nM. Moreover, in assay [1], the Maximum induction factor amounted to 4.8 and the “EC3x” value is reported as 181 nM.

At HPK1, `CN(C)C1COC2(CCOCC2)c2ccc(Nc3ccc(-c4cnc5cc(F)ccn45)c4c3C(=O)NC4)nc21` (centres unmarked) [Compound 49, 7-((8′-(DIMETHYLAMINO)-2,3,5,6,7′,8′-HEXAHYDROSPIRO[PYRAN-4,5′-PYRAN[4,3-B]PYRIDINE]-2′-YL)AMINO)-4-(7-FLUOROIMIDAZOLE[1,2-A]PYRIDIN-3-YL)ISOINDOL-1-ONE] showed an IC50 of 4.44 nM. Besides, the IC50 against GLK worked out at 338 nM. For the same compound, in assay [1], the Maximum induction factor was 10.7 and 5.7; the “EC3x” value was 152 nM and 294 nM.

Take `CN(C)C1CC2(CCOC2)c2ccc(Nc3ccc(-c4cnc5cc(F)ccn45)c4c3C(=O)NC4)nc21` (centres unmarked) [Compound 58, 7-((7-(DIMETHYLAMINO)-4′,5′,6,7-TETRAHYDRO-2′H-SPIRO[CYCLOPENTANE[B]PYRIDINE-5,3′-FURAN]-2-YL)AMINO)-4-(7-FLUOROIMIDAZO[1,2-A]PYRIDIN-3-YL)ISOINDOL-1-ONE]: the values for the IC50 at HPK1 and against GLK were 5.25 nM and 1480 nM, respectively. This compound returned a Maximum induction factor in assay [1] of 6.5. In addition, the “EC3x” value in assay [1] was 352 nM.

For the compound `O=C1NCc2c(-c3cnc4cc(F)ccn34)ccc(Nc3ccc4c(n3)C(NC3CC3)CC43CCOCC3)c21` (centres unmarked) [Compound 62, 7-((7-(CYCLOPROPYLAMINO)-2′,3′,5′,6,6′,7-HEXAHYDROSPIRO[CYCLOPENTYL[B]PYRIDINE-5,4′-PYRAN]-2-YL)AMINO)-4-(7-FLUOROIMIDAZOLE[1,2-A]PYRIDIN-3-YL)ISOINDOL-1-ONE], the values for the IC50 at HPK1 and against GLK were 10.2 nM and greater than 30000 nM, respectively. This compound also gave a Maximum induction factor in assay [1] of 4.9. The “EC3x” value in assay [1] is reported as 241 nM.

The compound `O=C1NCc2c(-c3cnc4cc(F)ccn34)ccc(Nc3ccc4c(n3)C(N3CC[C@@H](F)C3)CC43CCOCC3)c21` (stereo partly drawn) [Compound 71, 4-(7-FLUOROIMIDAZOLO[1,2-A]PYRIDIN-3-YL)-7-((7-((R)-3-FLUOROPYRROLIDIN-1-YL)-2′,3′,5′,6,6′,7-HEXA HYDROSPIRO[CYCLOPENTYL[B]PYRIDIN-5,4′-PYRAN]-2-YL)AMINO)ISOINDOL-1-ONE] yielded an IC50 on HPK1 of 3.27 nM. Besides, the IC50 on GLK came out at 293 nM. Besides, in assay [1], the Maximum induction factor is on record as 16.6 and the “EC3x” value worked out at 76 nM.

For `O=C1NCc2c(-c3cnc4cc(F)ccn34)ccc(Nc3ccc4c(n3)C(N3CC[C@H](F)C3)CC43CCOCC3)c21` (some centres unmarked) [Compound 75], the IC50 is 2.78 nM against HPK1 and 273 nM against GLK. For the same compound, in assay [1], the Maximum induction factor is 8.3 and 10.5. In assay [1], the “EC3x” value was 64 nM and 119 nM.

Regarding `O=C1NCc2c(-c3cnc4cc(Cl)ccn34)ccc(Nc3ccc4c(n3)C(N3CCCC3)CC43CCOCC3)c21` (centres unmarked) [Compound 103], the IC50 against HPK1 was 4.67 nM; against GLK it was 291 nM. In addition, the Maximum induction factor in assay [1] was 5.3. Besides, the “EC3x” value in assay [1] turned out to be 123 nM.

`O=C1NCc2c(-c3cnc4cc(F)ccn34)ccc(Nc3ccc4c(n3)C(NCC(F)F)CC43CCOCC3)c21` (centres unmarked) [Compound 105] displayed an IC50 on HPK1 of 5.26 nM. Moreover, in assay [1], the Maximum induction factor came to 14.1 and the “EC3x” value stood at 58 nM.

As for `O=C1NCc2c(-c3cnc4cc(F)ccn34)ccc(Nc3ccc4c(n3)C(NC3CCOC3)CC43CCOCC3)c21` (centres unmarked) [Compound 107], the IC50 against HPK1 was 3.55 nM. On GLK, this compound displayed an IC50 of 1200 nM. Further, in assay [1], the Maximum induction factor was found to be 8.8 and the “EC3x” value was found to be 296 nM.

`O=C1NCc2c(-c3cnc4cc(F)ccn34)ccc(Nc3ccc4c(n3)C(N3C5CCC3COC5)CC43CCOCC3)c21` (centres unmarked) [Compound 115] yielded an IC50 against HPK1 of 7.15 nM. In assay [1], the Maximum induction factor is given as 9.6 and the “EC3x” value came to 225 nM.

On HPK1, `Cc1ccn2c(-c3ccc(Nc4ccc5c(n4)CCCC54CCOCC4)c4c3CNC4=O)cnc2c1` [Compound 121] returned an IC50 of 3.35 nM. Further, inhibition against GLK was half-maximal at 679 nM (IC50). Further, in assay [1], the Maximum induction factor came to 19.4 and the “EC3x” value worked out at 140 nM.

At HPK1, `O=C1NCc2c(-c3cnc4cc(Cl)ccn34)ccc(Nc3ccc4c(n3)CCCC43CCOCC3)c21` [Compound 122] came in with an IC50 of 3.21 nM. The compound also returned an IC50 at GLK of 455 nM. Further, in assay [1], the Maximum induction factor was found to be 16.2 and the “EC3x” value stood at 56 nM.

On to `O=C1NCc2c(-c3cnc4cc(OC(F)F)ccn34)ccc(Nc3ccc4c(n3)CNCC43CCOCC3)c21` [Compound 123], for which the IC50 at HPK1 worked out at 12.1 nM. Besides, the IC50 at GLK was 896 nM. Besides, in assay [1], the Maximum induction factor is recorded as 26.8 and the “EC3x” value stood at 214 nM.

For `O=C1NCc2c(-c3cnc4cc(F)ccn34)ccc(Nc3ccc4c(n3)CCCC43CCC3)c21` [Compound 125], the half-maximal inhibitory concentration (IC50) against HPK1 is 11.1 nM. On GLK, the IC50 worked out at 1200 nM. Further, in assay [1], the Maximum induction factor turned out to be 20.2 and the “EC3x” value is 173 nM.

As to `O=C1NCc2c(-c3cnc4cc(F)ccn34)ccc(Nc3ccc4c(n3)CCCC43CCCC3)c21` [Compound 127], at HPK1, half-maximal inhibition (IC50) required 5.23 nM. On GLK, this compound yielded an IC50 of 767 nM. Also, in assay [1], the Maximum induction factor worked out at 19.1 and the “EC3x” value was 74.6 nM.

As for `CN(C)C1CC2(CCOC2)c2ccc(Nc3ccc(-c4cnc5cc(Cl)ccn45)c4c3C(=O)NC4)nc21` (centres unmarked) [Compound 151], the IC50 against HPK1 was 6.34 nM; on GLK, 970 nM. The compound further returned a Maximum induction factor in assay [1] of 6.5. For the same compound, the “EC3x” value in assay [1] came out at 53 nM.

As for `Cc1ccn2c(-c3ccc(Nc4ccc5c(n4)C(N(C)C)CC54CCOCC4)c4c3CNC4=O)cnc2c1` (centres unmarked) [Compound 161], the IC50 on HPK1 was 3.57 nM. On GLK, the IC50 turned out to be 311 nM. Also, in assay [1], the Maximum induction factor amounted to 6.4 and the “EC3x” value is 67 nM.

In the case of `CC(C)NC1CC2(CCOCC2)c2ccc(Nc3ccc(-c4cnc5cc(OC(F)F)ccn45)c4c3C(=O)NC4)nc21` (centres unmarked) [Compound 179], the IC50 on HPK1 is 8.85 nM; against GLK, 970 nM.

For the compound `COc1ccn2c(-c3ccc(Nc4ccc5c(n4)C(N(C)C)CC54CCOC4)c4c3CNC4=O)cnc2c1` (centres unmarked) [Compound 180, 7-((7-(DIMETHYLAMINO)-4′,5′,6,7-TETRAHYDRO-2′H-SPIRO[CYCLOPENTADIENYL[B]PYRIDINE-5,3′-FURAN]-2-YL)AMINO)-4-(7-METHOXYIMIDAZO[1,2-A]PYRIDIN-3-YL)ISOINDOLIN-1-ONE], the IC50 was determined as 13.9 nM at HPK1 and 3910 nM against GLK.
